Assay results taken from patent publication US10487089B2, “Imaging agents and methods of identifying same” (The Trustees of the University of Pennsylvania, priority 2014, dated 2019).
“Also recorded” adds a separate entry of the source.

Experiments:
[1] = Photophysical properties (absorption, emission, extinction coefficient, quantum yield); assay type: physicochemical
Text: n-Butyllithium in hexanes was purchased from Acros and titrated with diphenylacetic acid, which was recrystallized from toluene. All other reagents were purchased from Sigma Aldrich and used without further purification. Solvents were purchased from either Sigma Aldrich or Fisher Scientific. Anhydrous solvents were purchased from Fisher Scientific and dried by passing through an alumina column of a solvent purification system. Silica gel (230-400 mesh) used for column chromatography was purchased from Silicycle. Thin layer chromatography plates (250 μm thickness) were purchased from Sorbent Technologies. Revered-phase column chromatography was done using a RediSep Rf Gold C18 column on a Teledyne Isco CombiFlash Rf system. High-performance liquid chromatography (HPLC) was performed on a Jasco HPLC system using a Phenomenex column (Luna 5u C18(2) 100A; 250×4.60 mm, 5 micron). UV absorption spectra were obtained on a Jasco V-650 spectrophotometer using a 1 cm path length quartz cuvette. Fluorescence emission spectra were taken on a Horiba Jobin-Yvon FluoroLog using a 1 cm path length fluorescence quartz cuvette. ^1H-NMR and ^13C-NMR were recorded on either a Bruker DMX 500 (500 MHz) or a Bruker AVII 500 (500 MHz). High-resolution mass spectrometry was performed using a Waters LCT Premier XE Mass Spectrometer (model KE 332). […] was performed using a Bruker APEX2-DUO CCD X-ray Diffractometer. Photoreactions were carried out in a Rayonet Photochemical Reactor (model RPR-100). Quantum yield was determined by serial dilution method using coumarine 153 (in ethanol, Φ=0.38) and fluorescein (in NaOH 0.1 M, Φ=0.95) as standards (Yvon, A guide to recording Fluorescence Quantum Yields, http://www.horiba.com/fileadmin/uploads/Scientific/Documents/Fluorescence/quantumyie ldstrad.pdf, accessed Jul. 13, 2014; Brouwer, 2011, Pure Appl. Chem. 83: 2213-2228)

[2] = test system: mito-GFP cell line (GFP localized to the outer mitochondria membrane); test: Colocalization with GFP-labeled mitochondria in mito-GFP HeLa cells; assay type: cell-based
Protocol: For live cell imaging, HeLa cells and HeLa cells expressing a mitochondrial outer membrane targeting domain from Listeria monocytogenes (ActA, C-terminal 47 amino acids) fused to a HaloTag-GFP construct (Ballister et al., 2014, Nat. Commun. 5: 4575) were used. Cells were cultured in a 60 mm culture dish using Life Technologies Dulbecco's Modified Eagle Medium (DMEM) media with phenol red, 10% Fetal Bovine Serum and 1% penicillin-streptomycin at 37° C. in a humidified atmosphere with 5% CO2. The cells were detached with 0.05% trypsin-EDTA and transferred to a 35 mm glass bottom poly-D-lysine coated dish 2-5 days before imaging with about 2 mL of the above-mentioned media. A 5 mM solution of 11-E/11-Z in MiliQ water and a 1 mM solution of MitoTracker Red FM in DMSO were prepared. Two microliter of each solution was mixed with 2 mL new media and added to the cells after the old media was removed. After incubation (3 hours to overnight for 11-E/11-Z and 1 hour for MitoTracker Red FM), the excess dyes were washed twice with non-phenol red DMEM before imaging. The cells were kept in 2 mL non-phenol red DMEM during imaging.
A Leica TCS SP8 confocal microscope equipped with a 63×/1.4 NA oil immersion objective lens was used in FIG. 2A, 3E, S2, S3, and S4. To selectively observe 11-E/11-Z, the excitation wavelength of 405 nm and the emission wavelength range of 620-650 were used. To selectively observe MitoTracker Red FM, the excitation wavelength of 638 nm and the emission wavelength range of 650-700 were used. To selectively observe GFP, the excitation wavelength of 488 nm and the emission wavelength range of 500-550 were used.
Photoproduct 12 is red-shifted in both absorbance and emission by approximately 100 nm while retaining a large Stokes shift of 108 nm (FIG. 44C). […]
Incubating mito-GFP cells with 11-E/11-Z allowed colocalization to be assessed (FIGS. 45A and 54).

[3] = test system: HeLa cells; test: Intracellular photoactivation of 11-E/11-Z to 12 in live HeLa cells; assay type: cell-based; conditions: 200 alternating 150 ms pulses, one phase exponential fit
Text: A Leica DM4000 spinning disk confocal microscope equipped with a 100×1.4 NA oil immersion objective was used in FIGS. 3A and 3B. In FIG. 3A, two channels were used. The first channel has 444 nm excitation wavelength and 525 nm emission wavelength (emission bandpass filter, bandwidth=36 nm). The second channel has 488 nm excitation wavelength and 632 nm emission wavelength (emission bandpass filter, bandwidth=60 nm). The two channels were used alternatingly to carry out 200 150-ms pulses. In FIG. 46B, selective activation was carried out by short pulse (about 1 second) using a 405 nm laser (CrystaLaser, DL405-050-O) controlled by the iLas2 module in Metamorph. All image processing was done using ImageJ. All curve fitting was done using Prism.
By combining the observed photoreaction (FIG. 44A) and the ability to selectively label mitochondria for live cell imaging (FIG. 45A), intracellular photoactivation of 11-E/11-Z was attempted. The roughly 100 nm red-shifted absorbance and emission spectra of 12 compared to 11-E/11-Z allowed for selective excitation of individual species. […] A significant increase in the intensity of […] was achieved after 30 seconds, using 200 total scans (FIG. 46A, 46B). […] Immediately after the first activation, a bright signal was detected at the targeted region (box 1). […]

[4] = Stability of aqueous solution under ambient light (HPLC); assay type: physicochemical; conditions: 1 mM in water, 25° C., 10 days
Protocol: The stability of 1 mM aqueous solution of 11-E/11-Z was assessed under ambient light conditions at 25° C. for 10 days. […] HPLC chromatograms of compounds 11-E/11-Z and 12 can be seen in FIGS. 57 and 58.

[5] = test system: HeLa cells; test: Cytotoxicity studies, Alamar Blue cell viability; assay type: cell-based; conditions: HeLa cells, 24, 48, and 72 hours; 5 μM 11-E/11-Z, 1 μM MitoTracker Red FM
Protocol: In a 96-well plate, HeLa cells were plated at 5,000 cells/well in culture media as described above (50 μL/well) and incubated at 37° C. in a humidified atmosphere with 5% CO2. After 24 hours, cells were treated with 11-E/11-Z (final concentration was 5 μM), MitoTracker Red FM (final concentration was 1 μM), and DMSO (vehicle control for MitoTracker). For wells treated with MitoTracker and DMSO, DMSO concentration was kept at 1%. Untreated cells were used as vehicle control for 11-E/11-Z. Final volumes were 100 μL/well. Cells were incubated at 37° C. in 5% CO2 for 24, 48, or 72 hours. Alamar Blue (10 μL) was added 2 hours prior to fluorescence measurement. Fluorescence was measured at 560 nm excitation and 590 nm emission. Vehicle control was taken as 100% cell viability.

[6] = test system: HeLa cells; test: Confocal microscopy of stained live HeLa cells (subcellular localization, cell permeability); conditions: confocal microscopy
Text: Confocal microscopy was done on a Yokogawa spinning disk inverted microscope with a 100× lens. Each batch of stained cells was imaged by exciting with a 488 nm laser while observing at 503-545 nm (the green overlay images), exciting with a 561 nm laser while observing at 583-650 nm (the red overlay images), and by DIC (the grey images) (FIG. 8).
A 444 nm excitation was required to image with compounds 2 and 3 (FIG. 18).

Stokes shift [1]: 135 nm
Abs λmax ([1]; in water): 408 nm
Em λmax ([1]; in water): 543 nm
extinction coefficient ε ([1]; solvent: water): 11040 M⁻¹ cm⁻¹
quantum yield Φ ([1]; solvent: water): 0.021
SMILES: C[n+]1cccc2c1/C(=C1\c3ccccc3Oc3cccnc31)c1ccccc1O2 (racemic) [11-E/11-Z]
Manders' overlap coefficient (first) [2]: 0.98±0.01
Manders' overlap coefficient (second) [2]: 1.00±0.00
Spearman correlation with GFP ([2]; 80 cells): 0.88±0.02
rate constant, 444/525 channel [3]: 0.060 s⁻¹
rate constant, 488/632 channel [3]: 0.030 s⁻¹
stability of aqueous solution under ambient light [4]: No decomposition or photoproduct; also recorded: no evidence for decomposition or photoconversion
cytotoxicity [5]: very low cytotoxicity
staining specificity / subcellular localization [6]: consistent with mitochondrial uptake; also recorded: near exclusive mitochondrial localization
